The values below are quoted from earlier work in patent US20040156894A1, “Use of edible acids in fast-dispersing pharmaceutical solid dosage forms” (priority 2003, published 2004).

In brackets after ≈: the same amount, converted by molar mass. Where only a bound is given, the exact number is not on record here.

In the case of `CS(=O)(=O)c1ccc(C2=C(c3ccccc3)C(=O)OC2)cc1` [rofecoxib], the water solubility was 4 µg/mL (≈ 12.7 µM).
For `CN1C(C(=O)Nc2ccccn2)=C(O)c2ccccc2S1(=O)=O` [piroxicam], the water solubility was less than 1000 µg/mL.
